Measurements taken from patent US11666559B2, “Spiro-lactam compounds, process and uses thereof” (UNIVERSIDADE DE COIMBRA, priority 2017, dated 2023).
Read-outs that look alike come from different tables or passages of the source.

Key:
HIV = experiment: Anti-HIV activity evaluation (HIV type not specified); type: cell-based
Description: (§1) In an embodiment, TZM-bl cells (AIDS Research and Reference Reagent Program, National Institutes of Health, USA) were cultured in complete growth medium that consists of Dulbecco's minimal essential medium (DMEM) supplemented with 10% fetal bovine serum (FBS), 100 U/ml of penicillin-streptomycin (Gibco/Invitrogen, USA), 1 mM of sodium pyruvate (Gibco/Invitrogen, USA), 2 mM of L-glutamine (Gibco/Invitrogen, USA) and 1 mM of non-essential amino acids (Gibco/Invitrogen, USA).
(§2) In an embodiment, the primary isolates 93AOHDC249, 93AOHDC250, 01PTHDECJN and 03PTHCC9, used in this study were previously isolated, titrated and characterized for co-receptor usage. HIV reference strain SG3.1 was obtained by transfection of HEK293T cells with pSG3.1 (HIV-1) plasmid using Fugene 6 reagent (Roche, Switzerland) according to manufacturer's instructions.
(§3) In an embodiment, the 50% tissue culture infectious dose (TCID50) of the virus was determined in a single-round viral infectivity assay using a luciferase reporter gene assay in TZM-bl cells and calculated using the statistical method of Reed and Muench^27.
In an embodiment, the antiviral activity of the compounds was determined in a single-round assay with TZM-bl cells as previously described ^26. […] After 48 h of infection, luciferase expression was quantified with the One-Glow luciferase assay substrate reagent (Promega, USA) according to manufacturer's instructions. […] After an incubation of 3 minutes at room temperature to allow complete cell lysis luminescence was measured in Tecan Infinite M200. Background luminescence was measured by using control wells that contained only target cells and GM. […]
In an embodiment, dose-response curves were estimated from the percentage of inhibition of infection (y-axis) against logo of concentration of each compound (x-axis) using the sigmoidal dose-response equation (variable slope) in GraphPad Prism version 5.00 for Windows (GraphPad Software, San Diego Calif. USA, www.graphpad.com). IC50 and IC90 values were determined from this curve. […]

TZM-bl cells = experiment: Cellular viability assay (alamarBlue) in TZM-bl cells
Text: In an embodiment, the cellular cytotoxicity of 17 spiro-β-lactams was investigated in TZM-bl cells using the AlamarBlue assay as recommended by the manufacturer (Invitrogen, USA). TZM-bl, previously designated JC53-bl (clone 13) is a HeLa cell line. The parental cell line (JC.53) stably expresses large amounts of CD4, CCR5 and CXCR4. The TZM-bl cell line was generated from JC.53 cells by introducing separate integrated copies of the luciferase and […] genes under control of the HIV-1 promoter. The TZM-bl cell line is highly sensitive to infection with diverse isolates of HIV.
In an embodiment, the cellular viability assay was carried out as follows: the potential in vitro cytotoxicity of all BSS compounds was evaluated in TZM-bl cells. TZM-bl cells (10000 cells/well in 96-well plates) were incubated in absence or presence of serial-two-fold dilutions of the compounds in growth medium (GM), with starting concentration of 100 μg/ml and a final concentration of 0.781 μg/ml. After 48 hours, cell viability was examined with alamarBlue reagent (Invitrogen, USA) according to manufacturer's instructions. Briefly, 10 μl of alamarBlue reagent was added to each well. After 4 hours at 37° C., the fluorescence was measured in Tecan Infinite M200 (excitation wavelength 550 nm and emission wavelength 600 nm).
In an embodiment, at least two independent experiments have been performed for each cytotoxicity analysis.
In an embodiment, for each assay there were medium controls (only growth medium), cell controls (cells without test compound) and cytotoxicity controls (a compound that kill cells—SDS).

P. berghei liver stages = experiment: In vitro activity against the liver stage of Plasmodium infection (luciferase assay in Huh7 cells); type: cell-based, Plasmodium berghei; settings: P. berghei liver stages in Huh7 cells
Description: FIG. 6: Compound activity against P. berghei liver stages. Anti-Plasmodial activity (infection axis, bars) and toxicity to hepatoma cells (cell confluency axis, circles) are shown. Infection loads of Huh7 cells, a human hepatoma cell line, were determined by bioluminescence measurements of cell lysates 48 h after infection with luciferase-expressing P. berghei parasites. Luciferase assay in 96 well-plate; 10 000 Huh7 cells/well+10 000 PbA-LuciGFPcon spz/well.
In an embodiment, the in vitro activity against the liver stage of Plasmodium infection was also carried out: inhibition of liver stage Plasmodium infection by test compounds was determined by measuring the luminescence intensity in Huh-7 cells infected with a firefly luciferase-expressing P. berghei line, as previously described. Briefly, Huh-7 cells, a human hepatoma cell line, were cultured in 1640 RPMI medium supplemented with 10% v/v fetal bovine serum, 1% v/v nonessential amino acids, 1% v/v penicillin/streptomycin, 1% v/v glutamine, and 10 mM 4-(2-hydroxyethyl)-1-piperazineethanesulfonic acid (HEPES), pH 7, and maintained at 37° C. with 5% CO2. For infection assays, Huh-7 cells (1.0×10^4 per well) were seeded in 96-well plates the day before drug treatment and infection. The medium was replaced by medium containing the appropriate concentration of each compound approximately 1 h prior to infection with sporozoites freshly obtained through disruption of salivary glands of infected female Anopheles stephensi mosquitoes. Sporozoite addition was followed by centrifugation at 1700×g for 5 min. Parasite infection load was measured 48 h after infection by a bioluminescence assay (Biotium). The effect of the compounds on the viability of Huh-7 cells was assessed by the AlamarBlue assay (Invitrogen, U.K.) using the manufacturer's protocol.

[1] = test system: Enterococcus faecalis ATCC 29212; experiment: Anti-bacterial activity, agar diffusion method; type: cell-based; settings: at the concentration of 1 mg/ml
Description: (§4) In an embodiment, anti-bacterial activity of the compounds now disclosed was determined according to CLSI guidelines. The following bacteria were used: reference strains E. coli ATCC 10536, Staphylococcus aureus ATCC 6538, Bacillus subtilis ATCC 6633 and Enterococcus faecalis ATCC 29212; clinical strains of E. coli and Pseudomonas aeruginosa isolated in our laboratory; and strains of Lactobacillus rhamnosus and Lactobacillus plantarum also isolated in our laboratory. The Minimum Inhibitory Concentration (MIC) was determined by the agar diffusion method, in plates of Mueller-Hinton agar or Rogosa agar (for Lactobacilli). Briefly, 10^8 cfu/ml bacterial suspensions were prepared in sterile water and spread in the culture media. Sterile disks containing different concentrations of P3 were placed on the inoculated surface. Plates were incubated at 37° C. for 24 h or 48 h. Lactobacilli were incubated at microaerophilic conditions. A negative control made of sterile water was used. Disks of amoxicillin and imipenem were used as positive controls.

[2] = test system: Escherichia coli (Clinical strain); experiment: Anti-bacterial activity, agar diffusion method; type: cell-based; settings: at the concentration of 1 mg/ml
Description: as §4

[3] = test system: Escherichia coli ATCC 10536; experiment: Anti-bacterial activity, agar diffusion method; type: cell-based; settings: at the concentration of 1 mg/ml
Description: as §4

Lactobacillus plantarum = experiment: Anti-bacterial activity, agar diffusion method; type: cell-based; settings: at the concentration of 1 mg/ml
Description: as §4

Lactobacillus rhamnosus = experiment: Anti-bacterial activity, agar diffusion method; type: cell-based; settings: at the concentration of 1 mg/ml
Description: as §4

[4] = test system: Pseudomonas aeruginosa (Clinical strain); experiment: Anti-bacterial activity, agar diffusion method; type: cell-based; settings: at the concentration of 1 mg/ml
Description: as §4

[5] = test system: Staphylococcus aureus ATCC 6538; experiment: Anti-bacterial activity, agar diffusion method; type: cell-based; settings: at the concentration of 1 mg/ml
Description: as §4

[6] = test system: Bacillus subtillis ATCC 6633; experiment: Anti-bacterial activity, agar diffusion method; type: cell-based, Bacillus subtilis; settings: at the concentration of 1 mg/ml
Description: as §4

HIV-1 = settings: for IC50 / IC90: TZM-bl cells
Description: as §1, §2, §3
(§5) In an embodiment, the antiviral activity of the compounds was determined in a single-round assay with TZM-bl cells as previously described ^26. Cells were infected with 200 TCID50 of virus in the presence of serial fold dilutions of the BSS compounds in GM, supplemented with DEAE-dextran (19.7 μg/ml). After 48 h of infection, luciferase expression was quantified with the One-Glow luciferase assay substrate reagent (Promega, USA) according to manufacturer's instructions. Briefly, a volume of reagent equal to that of the culture medium in each well was added. For 96-well plates, typically 100 μl of reagent is added to the cells grown in 100 μl of medium. After an incubation of 3 minutes at room temperature to allow complete cell lysis luminescence was measured in Tecan Infinite M200. Background luminescence was measured by using control wells that contained only target cells and GM. Maraviroc (CCR5 antagonist), T1249 (fusion inhibitor) and AMD3100 (CXCR4 antagonist) were used as positive controls of the antiviral activity. At least two independent experiments were performed for each analysis and each assay was set up in triplicate wells.
(§6) In an embodiment, dose-response curves were estimated from the percentage of inhibition of infection (y-axis) against logo of concentration of each compound (x-axis) using the sigmoidal dose-response equation (variable slope) in GraphPad Prism version 5.00 for Windows (GraphPad Software, San Diego Calif. USA, www.graphpad.com). IC50 and IC90 values were determined from this curve. IC50 and IC90 values correspond to the concentration of compound that inhibits viral replication in 50% and 90%, respectively.

HIV-2 = test system: HIV-2
Description: as §1, §2, §3, §5, §6

[7] = 93AOHDC249, CCR5 tropic HIV-1 primary isolate
[8] = SG3.1, CXCR4 tropic HIV-1 adapted isolate
[9] = 03PTHCC19, CCR5 tropic HIV-2 isolate, TZM-bl cells, wa = without antiviral activity

COC(=O)C1=C(C(=O)OC)[C@@]2(N=N1)C(=O)N1[C@@H](C(=O)OC(c3ccccc3)c3ccccc3)C(C)(C)S[C@@H]12 [BSS-1026]
anti-HIV activity (in words) (HIV): non-active | CC50 (TZM-bl cells): 82 µM | anti-Plasmodium activity (in words) (P. berghei liver stages): did not display anti-Plasmodium activity

CC1(C)S[C@H]2N(C(=O)C23C(C(=O)c2ccccc2)N=NC3c2ccccc2)[C@H]1C(=O)OC(c1ccccc1)c1ccccc1 (some centres unmarked) [BSS-971S]
CC50 (TZM-bl cells): 82 µM

CCOC(=O)C1=NNC2(C1)C(=O)N1C(C(=O)O)C(C)(C)SC12 (centres unmarked) [BSS-597, Spiro[penicillanic-6,5′-(3-ethoxycarbonyl-2-pyrazoline)] acid]
CC50 (TZM-bl cells): 152 µM | inhibitory activity [1]: no inhibitory activity | inhibitory activity [2]: no inhibitory activity | inhibitory activity [3]: no inhibitory activity | inhibitory activity (Lactobacillus plantarum): no inhibitory activity | inhibitory activity (Lactobacillus rhamnosus): no inhibitory activity | inhibitory activity [4]: no inhibitory activity | inhibitory activity [5]: no inhibitory activity | inhibitory activity [6]: no inhibitory activity

CC(=O)C1C(C)C=C(C(=O)OCc2ccccc2)C12C(=O)N1[C@@H](C(=O)OC(c3ccccc3)c3ccccc3)C(C)(C)S[C@@H]12 (some centres unmarked) [BSS-794B]
CC50 (TZM-bl cells): 49 µM

COC(=O)C1C(C(=O)OCc2ccccc2)=CCC12C(=O)N1[C@@H](C(=O)OC(c3ccccc3)c3ccccc3)C(C)(C)S[C@@H]12 (some centres unmarked) [BSS-722A]
anti-HIV activity against HIV-1 (in words) (HIV-1): potent activity | MPI (maximum percentage of inhibition) (HIV-1; [7]): 99% | TI (in vitro therapeutic index, CC50/IC50) (HIV-1; [7]): 161.80 | IC50 (HIV-1; [7]): 0.332 µM | IC90 (HIV-1; [7]): 0.701 µM | MPI (maximum percentage of inhibition) (HIV-1; [8]): 97% | TI (in vitro therapeutic index, CC50/IC50) (HIV-1; [8]): 82.64 | IC50 (HIV-1; [8]): 0.65 µM | IC90 (HIV-1; [8]): 1.09 µM | anti-HIV activity against HIV-2 (in words) (HIV-2): potent activity | TI (in vitro therapeutic index, CC50/IC50) (HIV-2; 03PTHCC19, CCR5 tropic HIV-2 isolate): 105.29 | IC50 (HIV-2; [9]): 0.51 µM | IC90 (HIV-2; [9]): 1.18 µM | MPI (maximum percentage of inhibition) (HIV-2; 03PTHCC19, CCR5 tropic HIV-2 isolate, wa = without antiviral activity): 90% | CC50 (TZM-bl cells): 53.7 µM | CC50 (TZM-bl cells; read-out: CC50 (cytotoxic concentration 50%), Table 1, TZM-bl cells, 48 hours, alamarBlue): 53.7 µM | anti-Plasmodium activity (in words) (P. berghei liver stages): presented activity

CC(=O)C1C(C(=O)OCc2ccccc2)=CCC12C(=O)N1[C@@H](C(=O)OC(c3ccccc3)c3ccccc3)C(C)(C)S[C@@H]12 (some centres unmarked) [BSS-793B]
CC50 (TZM-bl cells): 47.7 µM

COC(=O)C1=C[C@@]2(N=N1)C(=O)N1[C@@H](C(=O)OC(c3ccccc3)c3ccccc3)C(C)(C)S[C@@H]12 [BSS-452]
anti-HIV activity (in words) (HIV): non-active | CC50 (TZM-bl cells): 105 µM | anti-Plasmodium activity (in words) (P. berghei liver stages): did not display anti-Plasmodium activity

COC(=O)C1=C(C(=O)OC)[C@@]2(N=N1)C(=O)N1[C@@H](C(=O)O)C(C)(C)S[C@@H]12 [BSS-587, (2,3′R,5R)-4′,5′-bis(methoxycarbonyl)-3,3-dimethyl-7-oxo-4-thia-1-azaspiro[bicyclo[3.2.0]heptane-6,3′-pyrazole]-2-carboxylic acid]
CC50 (TZM-bl cells; Table 2, TZM-bl cells, 48 hours, alamarBlue): 136 µM | inhibitory activity [1]: no inhibitory activity | inhibitory activity [2]: no inhibitory activity | inhibitory activity [3]: no inhibitory activity | inhibitory activity (Lactobacillus plantarum): no inhibitory activity | inhibitory activity (Lactobacillus rhamnosus): no inhibitory activity | inhibitory activity [4]: no inhibitory activity | inhibitory activity [5]: no inhibitory activity | inhibitory activity [6]: no inhibitory activity

CC(=O)C1=NNC(c2ccccc2)C12C(=O)N1[C@@H](C(=O)OC(c3ccccc3)c3ccccc3)C(C)(C)S[C@@H]12 (some centres unmarked) [BSS-974C]
CC50 (TZM-bl cells): 80.8 µM

CC(C)(C)OC(=O)C1=NNC(c2ccccc2)C12C(=O)N1[C@@H](C(=O)OC(c3ccccc3)c3ccccc3)C(C)(C)S[C@@H]12 (some centres unmarked) [BSS-973C]
CC50 (TZM-bl cells): 79.8 µM

CC(=O)C1=NNC2(C1)C(=O)N1C(C(=O)O)C(C)(C)SC12 (centres unmarked) [BSS-591, Spiro[penicillanic-6,5′-(3-acetyl-2-pyrazoline)] acid]
CC50 (TZM-bl cells): 164 µM | inhibitory activity [1]: no inhibitory activity | inhibitory activity [2]: no inhibitory activity | inhibitory activity [3]: no inhibitory activity | inhibitory activity (Lactobacillus plantarum): no inhibitory activity | inhibitory activity (Lactobacillus rhamnosus): no inhibitory activity | inhibitory activity [4]: no inhibitory activity | inhibitory activity [5]: no inhibitory activity | inhibitory activity [6]: no inhibitory activity

CC(=O)C1N=NC(c2ccccc2)C12C(=O)N1[C@@H](C(=O)OC(c3ccccc3)c3ccccc3)C(C)(C)S[C@@H]12 (some centres unmarked) [BSS-974S]
CC50 (TZM-bl cells): 91.9 µM
